Patent US10028966B2 (Avalyn Pharma Inc., priority 2014, dated 2018)
≈ marks a conversion by molar mass, not a printed value. Like-named read-outs stand apart in the source and are kept apart here. Marks after values point to notes of the source that are not given here.

Legend:
[1] = test system: bleomycin model of pulmonary fibrosis; assay: Bleomycin model of pulmonary fibrosis (hydroxyproline, fibrosis score); format: in vivo, Wistar rats; settings: for Right lung Average Hydroxyproline: days 7-28; for Average Fibrosis Score, difference from bleomycin control / Right lung Average Hydroxyproline, difference from bleomycin control: sham-subtracted
Procedure: To compare anti-fibrotic efficacy between extended-duration intratracheal, direct-lung aerosol administration and oral gavage, the bleomycin model of pulmonary fibrosis was performed. Doses for this study were selected based upon pharmacokinetic parameters obtained in Table 22 (from Example 8). Briefly, Wistar rats (175-225 grams) were administered bleomycin by the intratracheal route using a Penn Century MicroSprayer® catheter. On the seventh day following bleomycin exposure, animals initiated treatment with either saline or pirfenidone. Animals were dosed once a day on days 7 through 28, and euthanized on day 29. Pirfenidone was administered either intratracheally using Penn Century MicroSprayer catheter or by oral gavage. Sham and bleomycin control groups received either no treatment or intratracheal saline by Penn Century MicroSprayer catheter. While dosing more frequently (or less frequently) may improve the observed effects, anesthesia required for intratracheal administration reduced animal weight gain (reduced food intake) and, thus limited dosing to once a day for this study. Because anesthesia reduced weight gain, all study animals (intratracheal, oral and control) received once-a-day isoflurane using the same technique and duration. Twelve animals were enrolled into each dosing group. […] Oral gavage was administered in a single 300 mcL volume. Due to technical restrictions, instead of the mg/kg dose being equally split between six 50 mcL administrations over 2 minutes, intratracheal administration was performed with three equal 50 mcL volumes administered every 40 seconds over the same period. For dose selection, data from Table 22 was extrapolated. On day 29, animals were euthanized. Right lungs were extracted and measured for hydroxyproline content, while left lungs were subjected to histology. Histological sections were stained with picrosirius red and scored for lung tissue fibrosis. Twenty random photographs of each stained lung tissue section were taken, blinded and scored by an independent review panel. Observations were pooled for analysis.

[2] = test system: inflammasome activation in 264.7 macrophages; assay: Inflammasome first signal activation (LPS, secreted IL-1β); format: cell-based; settings: Macrophage; read-out: fifty-percent inhibitory concentration (IC50), first-signal inflammasome activation
[3] = test system: normal human pulmonary fibroblasts; assay: TGFβ1-induced fibroblast differentiation; format: cell-based; settings: for IC50: Homo sapiens, Pulmonary fibroblast, read-out: IC50, TGFβ-induced fibroblast differentiation; for αSMA (Fluorescence): TGFβ +
Procedure: Briefly, 20 000 cells per well were seeded in black 96 well collagen coated plates and incubate overnight (approximately 24 hours) to allow adherence. […] Cultures were then incubated for 48 hours. […] Separate controls were included for diluted cultures containing TGFβ1 or media alone. At the end of incubation, cells were fixed and stained for imaging and fluorescence plate reader quantitation. Parallel cultures were assessed for cytotoxicity using the MTS dye assay.

[4] = test system: LPS-induced pulmonary inflammasome model; assay: LPS-induced pulmonary inflammasome model (BAL cell counts, BAL IL-1β); format: in vivo, Sprague Dawley rats; settings: for BAL IL-1β, average / BAL cells (%), EO (eosinophil), average / BAL cells (%), LM (lymphocytes), average / BAL cells (%), NP (neutrophils), average / BAL number cells, EO (eosinophil), average / BAL number cells, LM (lymphocytes), average / BAL number cells, NP (neutrophils), average: 24 hours, n = 4; for LPS-induced IL-1β (%): relative to LPS + IT saline = 100
Procedure: To compare the efficacy of intratracheal, direct-lung aerosol administration and oral gavage, the LPS-induced pulmonary inflammasome model was performed. Briefly, Sprague Dawley rats (200-250 grams) were administered a single dose of LPS by the intratracheal route (IT) using a intubation aerosol delivery device. All IT doses were delivered just above the first pulmonary bifurcation. Sham animals were treated with saline. […] Lungs were lavaged and collected bronchial lavage fluid (BAL) was assessed for total cell count, neutrophils, macrophage, eosinophils and lymphocytes. BAL was also assessed for IL-1b.

[5] = Aqueous solubility, tonicity salt, dissolution and taste observations on pirfenidone formulations; format: physicochemical
Procedure: However, at this (and lower) concentration it was determined that salt addition was required to improve acute tolerability upon inhalation of a nebulized solution (otherwise a hypotonic solution). To address tonicity, NaCl or MgCl2 were added. […] This effect was not observed at ˜pH 8.

[6] = cited from earlier work; for AUC (0-18 hrs) / Cmax: human
[7] = cited from earlier work; for Cmax: read-out: oral Cmax in IPF patients
[8] = Bleomycin + IT pirfenidone 0.9 mg/kg
[9] = Bleomycin + IT pirfenidone 3.0 mg/kg
[10] = Bleomycin + IT pirfenidone 6.4 mg/kg
[11] = Bleomycin + PO pirfenidone 30 mg/kg
[12] = Bleomycin + PO pirfenidone 100 mg/kg
[13] = 0.5 mg/kg intratracheal, single dose with LPS, BAL after 24 hours
[14] = 30 mg/kg oral gavage 2 hours before LPS (60-fold larger dose)
[15] = LPS + PO pirfenidone 30.0 mg/kg
[16] = oral 801 mg fasted-state, plasma

Cc1ccc(=O)n(-c2ccccc2)c1 [pirfenidone, 5-methyl-1-phenyl-2-(1H)-pyridone]
possible lung tissue Cmax ([1]; 0.9 mg/kg dose to 250 gram rat, lung about 1.5 grams, whole dose): ≤ 150 mcg/gram | possible lung tissue Cmax ([1]; 0.9 mg/kg intratracheal dose divided into thirds): about 50 mcg/gram lung tissue | anti-fibrotic efficacy ([1]; 3.0 mg/kg intratracheal, direct lung aerosol, once a day days 7-28): no observed pirfenidone efficacy | Average Fibrosis Score, Picrosirius Red-stained left lung sections [1, 8]: 2.88* | Lung Tissue AUC0-2 hrs [1, 8]: 2.6 µg·h/g | Lung Tissue Cmax [1, 8]: 11.6 µg/g | Right lung Average Hydroxyproline ([1]; Bleomycin + IT pirfenidone 0.9 mg/kg once a day): 2.88* mg/right lung | Average Fibrosis Score, difference from bleomycin control [1, 8]: −0.53*, **** | Right lung Average Hydroxyproline, difference from bleomycin control [1, 8]: −0.70*, **** mg/right lung | Average Fibrosis Score, Picrosirius Red-stained left lung sections [1, 9]: 3.66 | Lung Tissue AUC0-2 hrs [1, 9]: 7.3 µg·h/g | Lung Tissue Cmax [1, 9]: 33.5 µg/g | Right lung Average Hydroxyproline ([1]; Bleomycin + IT pirfenidone 3.0 mg/kg once a day): 3.56 mg/right lung | Average Fibrosis Score, difference from bleomycin control [1, 9]: 0.26***, **** | Right lung Average Hydroxyproline, difference from bleomycin control [1, 9]: −0.02**, **** mg/right lung | Average Fibrosis Score, Picrosirius Red-stained left lung sections [1, 10]: 3.47 | Lung Tissue AUC0-2 hrs [1, 10]: 15.5 µg·h/g | Lung Tissue Cmax [1, 10]: 71.5 µg/g | Right lung Average Hydroxyproline ([1]; Bleomycin + IT pirfenidone 6.4 mg/kg once a day): 3.50 mg/right lung | Average Fibrosis Score, difference from bleomycin control [1, 10]: 0.07**, **** | Right lung Average Hydroxyproline, difference from bleomycin control [1, 10]: −0.08***, **** mg/right lung | Average Fibrosis Score, Picrosirius Red-stained left lung sections [1, 11]: 3.11 | Lung Tissue AUC0-2 hrs [1, 11]: 18.2 µg·h/g | Lung Tissue Cmax [1, 11]: 11.8 µg/g | Right lung Average Hydroxyproline ([1]; Bleomycin + PO pirfenidone 30 mg/kg once a day): 3.65 mg/right lung | Average Fibrosis Score, difference from bleomycin control [1, 11]: 0.68*, ** | Right lung Average Hydroxyproline, difference from bleomycin control [1, 11]: 0.43*, ** mg/right lung | Average Fibrosis Score, Picrosirius Red-stained left lung sections [1, 12]: 3.61 | Lung Tissue AUC0-2 hrs [1, 12]: 34.4 µg·h/g | Lung Tissue Cmax [1, 12]: 33.6 µg/g | Right lung Average Hydroxyproline ([1]; Bleomycin + PO pirfenidone 100 mg/kg once a day): 3.73 mg/right lung | Average Fibrosis Score, difference from bleomycin control [1, 12]: 1.18*** | Right lung Average Hydroxyproline, difference from bleomycin control [1, 12]: 0.51*** mg/right lung | anti-fibrotic efficacy (fibrosis, hydroxyproline), direct lung versus oral ([1]; intratracheal aerosol versus oral gavage): more efficacious | IC50 [2]: ~25 µg/mL (≈ 135 µM) | IC50 ([3]; 48 h): ~25 µg/mL (≈ 135 µM) | IC50 [3]: ~125 µg/mL (≈ 675 µM) | αSMA (Fluorescence) ([3]; Table 36, Long-term exposure (48 hours), pirfenidone 5 mcg/mL): 4.72 | αSMA (Fluorescence) ([3]; Table 36, Long-term exposure (48 hours), pirfenidone 25 mcg/mL): 4.04 | αSMA (Fluorescence) ([3]; Table 36, Long-term exposure (48 hours), pirfenidone 125 mcg/mL): 3.15 | αSMA (Fluorescence) ([3]; Table 36, Long-term exposure (48 hours), pirfenidone 625 mcg/mL): 2.47 | αSMA (Fluorescence) ([3]; Table 36, Short-term exposure, pirfenidone 5 mcg/mL): 6.76 | αSMA (Fluorescence) ([3]; Table 36, Short-term exposure, pirfenidone 25 mcg/mL): 5.34 | αSMA (Fluorescence) ([3]; Table 36, Short-term exposure, pirfenidone 625 mcg/mL): 3.57 | αSMA (Fluorescence) ([3]; Table 37 (broader dose-response), Short-term exposure, pirfenidone 1 mcg/mL): 7.65 | αSMA (Fluorescence) ([3]; Table 37 (broader dose-response), Short-term exposure, pirfenidone 10 mcg/mL): 7.75 | αSMA (Fluorescence) ([3]; Table 37 (broader dose-response), Short-term exposure, pirfenidone 100 mcg/mL): 5.61 | αSMA (Fluorescence) ([3]; Table 37 (broader dose-response), Short-term exposure, pirfenidone 1000 mcg/mL): 2.27 | lung tissue Cmax (estimated) ([4]; 0.5 mg/kg IT): ~83 mcg/gram | LPS-induced inflammatory cell infiltration (BAL) [4, 13]: negated | reduction of LPS-induced BAL IL-1β levels [4, 13]: 62% | effect on LPS-induced BAL IL-1β levels [4, 14]: no effect | effect on LPS-induced inflammatory cell infiltration (BAL) [4, 14]: no effect | BAL IL-1β, average ([4]; LPS + IT pirfenidone 0.5 mg/kg): 36.2 pg/mL | BAL cells (%), EO (eosinophil), average ([4]; LPS + IT pirfenidone 0.5 mg/kg): 0.7% | BAL cells (%), LM (lymphocytes), average ([4]; LPS + IT pirfenidone 0.5 mg/kg): 1.0% | BAL cells (%), NP (neutrophils), average ([4]; LPS + IT pirfenidone 0.5 mg/kg): 13.0% | BAL number cells, EO (eosinophil), average ([4]; LPS + IT pirfenidone 0.5 mg/kg): 0.0 1 × 10e5 | BAL number cells, LM (lymphocytes), average ([4]; LPS + IT pirfenidone 0.5 mg/kg): 0.1 1 × 10e5 | BAL number cells, NP (neutrophils), average ([4]; LPS + IT pirfenidone 0.5 mg/kg): 0.7 1 × 10e5 | LPS-induced IL-1β (%) ([4]; LPS + IT pirfenidone 0.5 mg/kg): 38% | BAL IL-1β, average [4, 15]: 105.9 pg/mL | BAL cells (%), EO (eosinophil), average [4, 15]: 0.6% | BAL cells (%), LM (lymphocytes), average [4, 15]: 0.9% | BAL cells (%), NP (neutrophils), average [4, 15]: 36.4% | BAL number cells, EO (eosinophil), average [4, 15]: 0.3 1 × 10e5 | BAL number cells, LM (lymphocytes), average [4, 15]: 0.3 1 × 10e5 | BAL number cells, NP (neutrophils), average [4, 15]: 13.2 1 × 10e5 | LPS-induced IL-1β (%) [4, 15]: 113% | formulation stability on storage ([5]; MgCl2 added, 1:1 and 1:2 mole ratios of magnesium to pirfenidone): maintained a stable, soluble solution | solubility ([5]; aqueous solution, aqueous buffer, across a pH range of about 4.0 to about 8.0): ~17 mg/mL | formulation stability on storage ([5]; ~17 mg/mL pirfenidone, NaCl added for tonicity, ambient storage): precipitation upon ambient storage | T1/2 beta ([6]; aerosol 47 mg RDD, lung tissue, from plasma T1/2, Rubino et al., 2009 fasted-state): 2.5 h | T1/2 beta ([6]; aerosol 47 mg RDD, plasma, Rubino et al., 2009 fasted-state): 2.5 h | AUC (0-18 hrs) [6, 16]: 67700 ng·h/mL | Cmax [6, 16]: 14.2 microgram/mL | AUC (0-18 hrs) ([6]; oral 801 mg fed-state, plasma): 58900 ng·h/mL | Cmax ([6]; oral 801 mg fed-state, plasma): 7.9 microgram/mL | T1/2 beta ([6]; oral 801 mg fasted-state, lung tissue, from plasma T1/2, Rubino et al., 2009): 2.5 h | T1/2 beta ([6]; oral 801 mg fasted-state, plasma, Rubino et al., 2009): 2.5 h | T1/2 beta ([6]; oral 801 mg fed-state, lung tissue, from plasma T1/2, Rubino et al., 2009): 2.4 h | T1/2 beta ([6]; oral 801 mg fed-state, plasma, Rubino et al., 2009): 2.4 h | time plasma level at or greater than 5 mcg/mL ([7]; 801 mg oral pirfenidone, human-measured value): 4 h | oral Cmax in IPF patients ([7]; fasting-state): about 15.7 mcg/mL | Cmax ([7]; fasting-state): ~84 µM | increase in Tmax ([7]; oral, fed-state): seven-fold | reduction in Cmax ([7]; oral, fed-state): ~50% | reduction in overall exposure ([7]; oral, fed-state): 10-15% | oral Cmax in IPF patients ([7]; recommended fed-state): about 7.9 mcg/mL | Cmax ([7]; recommended fed-state): ~42 µM
